Test results published in patent US7910621B2, “Small molecule antagonists of XIAP family proteins” (The Regents of the University of Michigan, priority 2004, dated 2011).

Assays:
[1] = test system: PC-3 prostate cancer cells; assay: WST-1 cell growth inhibition assay, PC-3; format: cell-based; conditions: Homo sapiens, 120 h; PC-3, WST-1, five days
Protocol: FIG. 5 presents inhibition of cell growth by embelin in prostate cancer cells (PC-3 and LnCap) and its selectivity in normal human prostate epithelial cells (PrEC) and normal human fibroblast cell line, WI-38. 5000 cells per well in a 96-well cell culture plate were treated with various concentrations of embelin in triplicate. Five days later, the cell growth was measured by the WST-1 cell growth assay kit […] The cell growth results are expressed as the percent of control and calculated from the percent of absorbance of treated wells versus that of vehicle control.
Human prostate cancer cell lines (PC-3, LNCap, CL-1, DU-145), and normal human fibroblast cell line WI-38 were obtained from the American Type Culture Collection (ATCC), were grown and maintained in Dulbecco's modified Eagle's medium (DMEM) containing 10% FBS (Invitrogen Corporation). Normal human prostate epithelial cells (PrEC) were obtained from Clonetics (Cambrex Inc., MD) and maintained in the special medium provided by the company. […]
(§1) Cell growth was determined by the MTT-based assay using Cell Proliferation Reagent WST-1 (Roche) according to the manufacturer's instruction. […] Absorbance was measured with a plate reader at […] with correction at […]. The results are expressed as the percent of absorbance of treated wells versus that of vehicle control.

Jurkat-Vec cells [2] = assay: Cell growth assay, Jurkat-Vec; format: cell-based; conditions: read-out: IC50 cell growth inhibition
Protocol: (§2) FIG. 9 presents inhibition of cell growth by embelin in Jurkat-Vec and Jurkat-XIAP cells. The cell growth results are expressed as the percent of control and calculated from the percent of absorbance of treated wells versus that of vehicle control.
(§3) Human prostate cancer cell lines (PC-3, LNCap, CL-1, DU-145), and normal human fibroblast cell line WI-38 were obtained from the American Type Culture Collection (ATCC), were grown and maintained in Dulbecco's modified Eagle's medium (DMEM) containing 10% FBS (Invitrogen Corporation). Normal human prostate epithelial cells (PrEC) were obtained from Clonetics (Cambrex Inc., MD) and maintained in the special medium provided by the company. Jurkat T-cells stably transfected with either empty vector (Jurkat-Vec), or XIAP (Jurkat-XIAP) and were cultured in RPMI 1640 containing 10% fetal calf serum and 1 ug/ml puromycin. Cell cultures were maintained in a humidified incubator at 37° C. and 5% CO2.
as §1

Jurkat-XIAP cells [3] = assay: Cell growth assay, Jurkat-XIAP; format: cell-based; conditions: essentially identical to that in Jurkat-Vec cells
Protocol: as §2, §3
Cell growth was determined by the MTT-based assay using Cell Proliferation Reagent WST-1 (Roche) according to the manufacturer's instruction. The WST-1 assay is a colorimetric assay that measures the reduction of WST-1 by mitochondrial succinate dehydrogenase, which belongs to the respiratory chain of the mitochondria and is active only in viable cells. The WST-1 enters the cells and passes into the mitochondria, where it is reduced to a soluble, colored formazan product. The amount of formazan dye formed directly correlates to the number of metabolically active cells in the culture. Cells (5000 cells/well) were grown in medium with 10% FBS, and various concentrations of drugs were added to the cells in triplicate. […] Absorbance was measured with a plate reader at […] with correction at […]. The results are expressed as the percent of absorbance of treated wells versus that of vehicle control.

[4] = test system: PC-3 prostate cancer cells; assay: Annexin V-FITC apoptosis assay by flow cytometry, PC-3; format: cell-based, human; conditions: 48 hours
Protocol: FIG. 6 presents induction of apoptosis by embelin in PC-3 prostate cancer cells. 1×10^6 PC-3 cells per well in 6-well culture plates were treated with embelin for 48 hours, stained with Annexin V-FITC and propidium iodide for apoptosis by flow cytometry. The results are shown as percent of Annexin V-FITC positive apoptotic cells (n=3).
(§4) PC-3 cells, 1×10^6 cells per well in 6-well culture plates, were treated in triplicate with various concentrations of embelin for 24 or 48 hours, then trypsinized and washed with PBS. For Jurkat cells, 1×10^6 Jurkat-XIAP or Jurkat-Vec cells per well in 6-well culture plates, were treated with etoposide, embelin, or both for 15 hours. For flow cytometry apoptosis assay, cells were stained with Annexin V-FITC and propidium iodide using the Annexin-V-FLUOS Kit (Roche) according to the manufacturer's instruction. The fluorescence of Annexin V-FITC and propidium iodide of individual cells was analyzed by FACScan. The results are shown as percent of Annexin V-FITC positive apoptotic cells.

Jurkat-Vec cells [5] = assay: Annexin V-FITC apoptosis assay, Jurkat-Vec; format: cell-based; conditions: combination with etoposide, 15 hours
Protocol: (§5) FIGS. 8A and 8B present (A): Dose-dependent induction of apoptosis by etoposide in Jurkat cells transfected with vector control (Jurkat-Vec) and stably transfected with XIAP (Jurkat-XIAP cells); and (B): Induction of apoptosis by etoposide and embelin alone and in combination in Jurkat-Vec and Jurkat-XIAP cells. 1×10^6 Jurkat-XIAP or Jurkat-Vec cells per well in 6-well culture plates were treated with etoposide and embelin alone, or in combination for 15 hours, then stained with Annexin V-FITC and propidium iodide for apoptosis by flow cytometry. The results are shown as percent of Annexin V-FITC positive apoptotic cells.
as §4

Jurkat-XIAP cells [6] = assay: Annexin V-FITC apoptosis assay, Jurkat-XIAP; format: cell-based; conditions: combination with etoposide, 15 hours
Protocol: as §5, §4

CCCCCCCCCCCC1=C(O)C(=O)C=C(O)C1=O [embelin]
IC50 [1]: 3.7 µM
IC50 (Jurkat-Vec cells [2]): 20 µM
activity in cell growth assay (Jurkat-XIAP cells [3]): weak activity
PC-3 cells that underwent apoptosis (Annexin V-FITC positive) ([4]; 25 μM): 30%
increase in apoptosis as compared to control cells ([4]; 25 μM): approximately 3 fold
PC-3 cells that underwent apoptosis (Annexin V-FITC positive) ([4]; 50 μM): 75%
increase in apoptosis as compared to control cells ([4]; 50 μM): ~9 fold
effect on etoposide-induced apoptosis in combination, compared to etoposide alone (Jurkat-Vec cells [5]): did not increase
percentage of apoptotic cells in combination, compared to either drug alone (Jurkat-XIAP cells [6]): significantly increased
